Assay results taken from patent US11279681B2, “3-alkyl bicyclic [4,5,0] hydroxamic acids as HDAC inhibitors” (Valo Health, Inc., priority 2015, dated 2022).

biological target: T1, HDAC6 (Homo sapiens, UniProt Q9UBN7); experiment: In vitro histone deacetylase assay: enzymatic HDAC6 electrophoretic mobility shift assay; assay type: biochemical; details: full length human recombinant HDAC6, 1 nM enzyme, 2 μM peptide substrate RHKK(Ac)-NH2, 25° C.; read-out: Inhibitory Concentration (IC50) Values for Representative Compounds against HDAC6, Activity Range
T1 sequence (Q9UBN7 1-1215): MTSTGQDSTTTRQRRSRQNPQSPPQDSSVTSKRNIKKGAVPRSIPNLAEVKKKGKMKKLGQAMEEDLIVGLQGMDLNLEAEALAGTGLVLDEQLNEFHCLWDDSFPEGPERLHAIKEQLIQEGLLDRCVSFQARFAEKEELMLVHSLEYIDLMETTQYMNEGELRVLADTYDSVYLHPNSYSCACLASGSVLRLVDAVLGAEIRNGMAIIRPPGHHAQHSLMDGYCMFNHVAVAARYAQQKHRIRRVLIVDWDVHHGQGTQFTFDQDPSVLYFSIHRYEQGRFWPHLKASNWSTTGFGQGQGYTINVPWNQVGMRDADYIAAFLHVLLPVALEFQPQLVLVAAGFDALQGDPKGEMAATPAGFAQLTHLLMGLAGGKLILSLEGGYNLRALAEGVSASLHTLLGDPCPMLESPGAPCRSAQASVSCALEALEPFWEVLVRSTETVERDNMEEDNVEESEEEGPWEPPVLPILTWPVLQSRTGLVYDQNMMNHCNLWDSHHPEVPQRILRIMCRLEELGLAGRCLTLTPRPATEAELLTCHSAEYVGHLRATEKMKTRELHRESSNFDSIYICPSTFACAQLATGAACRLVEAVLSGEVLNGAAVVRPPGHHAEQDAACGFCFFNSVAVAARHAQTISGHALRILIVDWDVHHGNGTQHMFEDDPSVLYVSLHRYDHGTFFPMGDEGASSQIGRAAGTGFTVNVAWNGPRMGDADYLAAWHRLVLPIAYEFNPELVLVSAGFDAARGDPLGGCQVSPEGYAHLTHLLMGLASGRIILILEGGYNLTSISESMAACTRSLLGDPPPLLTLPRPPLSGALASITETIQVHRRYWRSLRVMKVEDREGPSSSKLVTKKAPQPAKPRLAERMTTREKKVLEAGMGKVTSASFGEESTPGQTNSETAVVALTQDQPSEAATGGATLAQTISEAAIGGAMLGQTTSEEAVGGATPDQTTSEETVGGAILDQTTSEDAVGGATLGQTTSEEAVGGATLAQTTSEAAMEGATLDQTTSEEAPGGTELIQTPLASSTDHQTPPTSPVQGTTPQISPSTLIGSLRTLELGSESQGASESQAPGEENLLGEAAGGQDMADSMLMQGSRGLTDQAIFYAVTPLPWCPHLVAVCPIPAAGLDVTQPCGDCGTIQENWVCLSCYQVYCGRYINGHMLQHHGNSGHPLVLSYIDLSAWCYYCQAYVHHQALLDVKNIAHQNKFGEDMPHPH

Row | IC50 [nM] | Structure (SMILES)
1 | > 500 | CC(C)[C@H]1COc2cc(C(=O)NO)ccc2CN1c1ccncc1 [(S)-N-hydroxy-3-isopropyl-4-(pyridin-4-yl)-2,3,4,5-tetrahydrobenzo[f][1,4]oxazepine-8-carboxamide]
2 | 100 to 500 | C[C@H]1COc2cc(C(=O)NO)ccc2CN1CCN1CCOCC1 [(S)-N-hydroxy-3-methyl-4-(2-morpholinoethyl)-2,3,4,5-tetrahydrobenzo[f][1,4]oxazepine-8-carboxamide]
3 | 100 to 500 | C[C@H]1COc2cc(C(=O)NO)ccc2CN1c1cccc(C(F)(F)F)c1 [(S)-N-hydroxy-3-methyl-4-(3-(trifluoromethyl)phenyl)-2,3,4,5-tetrahydrobenzo[f][1,4]oxazepine-8-carboxamide]
4 | 100 to 500 | C[C@H]1COc2cc(C(=O)NO)ccc2CN1CCCN1CCOCC1 [(S)-N-hydroxy-3-methyl-4-(3-morpholinopropyl)-2,3,4,5-tetrahydrobenzo[f][1,4]oxazepine-8-carboxamide]
5 | 100 to 500 | C[C@H]1COc2cc(C(=O)NO)ccc2CN1c1ccc(OC(F)(F)F)cc1 [(S)-N-hydroxy-3-methyl-4-(4-(trifluoromethoxy)phenyl)-2,3,4,5-tetrahydrobenzo[f][1,4]oxazepine-8-carboxamide]
6 | 100 to 500 | C[C@H]1COc2cc(C(=O)NO)ccc2CN1c1ccc(C(F)(F)F)cc1 [(S)-N-hydroxy-3-methyl-4-(4-(trifluoromethyl)phenyl)-2,3,4,5-tetrahydrobenzo[f][1,4]oxazepine-8-carboxamide]
7 | 100 to 500 | C[C@H]1COc2cc(C(=O)NO)ccc2CN1C(=O)N1CCN(C)CC1 [(S)-N-hydroxy-3-methyl-4-(4-methylpiperazine-1-carbonyl)-2,3,4,5-tetrahydrobenzo[f][1,4]oxazepine-8-carboxamide]
8 | ≤ 100 | C[C@H]1COc2cc(C(=O)NO)ccc2CN1S(C)(=O)=O [(S)-N-hydroxy-3-methyl-4-(methylsulfonyl)-2,3,4,5-tetrahydrobenzo[f][1,4]oxazepine-8-carboxamide]
9 | ≤ 100 | C[C@H]1COc2cc(C(=O)NO)ccc2CN1C(=O)N1CCOCC1 [(S)-N-hydroxy-3-methyl-4-(morpholine-4-carbonyl)-2,3,4,5-tetrahydrobenzo[f][1,4]oxazepine-8-carboxamide]
10 | ≤ 100 | Cc1ccccc1N1Cc2ccc(C(=O)NO)cc2OC[C@@H]1C [(S)-N-hydroxy-3-methyl-4-(o-tolyl)-2,3,4,5-tetrahydrobenzo[f][1,4]oxazepine-8-carboxamide]
11 | > 500 | C[C@H]1COc2cc(C(=O)NO)ccc2CN1C1COC1 [(S)-N-hydroxy-3-methyl-4-(oxetan-3-yl)-2,3,4,5-tetrahydrobenzo[f][1,4]oxazepine-8-carboxamide]
12 | ≤ 100 | C[C@H]1COc2cc(C(=O)NO)ccc2CN1CC1COC1 [(S)-N-hydroxy-3-methyl-4-(oxetan-3-ylmethyl)-2,3,4,5-tetrahydrobenzo[f][1,4]oxazepine-8-carboxamide]
13 | ≤ 100 | C[C@H]1COc2cc(C(=O)NO)ccc2CN1C(=O)N1CCCCC1 [(S)-N-hydroxy-3-methyl-4-(piperidine-1-carbonyl)-2,3,4,5-tetrahydrobenzo[f][1,4]oxazepine-8-carboxamide]
14 | ≤ 100 | C[C@H]1COc2cc(C(=O)NO)ccc2CN1c1ccccn1 [(S)-N-hydroxy-3-methyl-4-(pyridin-2-yl)-2,3,4,5-tetrahydrobenzo[f][1,4]oxazepine-8-carboxamide]
15 | ≤ 100 | C[C@H]1COc2cc(C(=O)NO)ccc2CN1c1cccnc1 [(S)-N-hydroxy-3-methyl-4-(pyridin-3-yl)-2,3,4,5-tetrahydrobenzo[f][1,4]oxazepine-8-carboxamide]
16 | 100 to 500 | C[C@H]1COc2cc(C(=O)NO)ccc2CN1c1ccncc1 [(S)-N-hydroxy-3-methyl-4-(pyridin-4-yl)-2,3,4,5-tetrahydrobenzo[f][1,4]oxazepine-8-carboxamide]
17 | ≤ 100 | C[C@H]1COc2cc(C(=O)NO)ccc2CN1C(=O)N1CCCC1 [(S)-N-hydroxy-3-methyl-4-(pyrrolidine-1-carbonyl)-2,3,4,5-tetrahydrobenzo[f][1,4]oxazepine-8-carboxamide]
18 | ≤ 100 | COCCN1Cc2ccc(C(=O)NO)cc2OC[C@@H]1C [(S)-N-hydroxy-4-(2-methoxyethyl)-3-methyl-2,3,4,5-tetrahydrobenzo[f][1,4]oxazepine-8-carboxamide]

Row | IC50 [nM] | Structure (SMILES)
19 | ≤ 100 | COc1ccccc1N1Cc2ccc(C(=O)NO)cc2OC[C@@H]1C [(S)-N-hydroxy-4-(2-methoxyphenyl)-3-methyl-2,3,4,5-tetrahydrobenzo[f][1,4]oxazepine-8-carboxamide]
20 | ≤ 100 | COC1CN(C(=O)N2Cc3ccc(C(=O)NO)cc3OC[C@@H]2C)C1 [(S)-N-hydroxy-4-(3-methoxyazetidine-1-carbonyl)-3-methyl-2,3,4,5-tetrahydrobenzo[f][1,4]oxazepine-8-carboxamide]
21 | 100 to 500 | COCCCN1Cc2ccc(C(=O)NO)cc2OC[C@@H]1C [(S)-N-hydroxy-4-(3-methoxypropyl)-3-methyl-2,3,4,5-tetrahydrobenzo[f][1,4]oxazepine-8-carboxamide]
22 | ≤ 100 | COC[C@H]1COc2cc(C(=O)NO)ccc2CN1Cc1ccc(OC)cc1 [(S)-N-hydroxy-4-(4-methoxybenzyl)-3-(methoxymethyl)-2,3,4,5-tetrahydrobenzo[f][1,4]oxazepine-8-carboxamide]
23 | 100 to 500 | COc1ccc(CN2CCOc3cc(C(=O)NO)ccc3[C@@H]2C)cc1 [(S)-N-hydroxy-4-(4-methoxybenzyl)-5-methyl-2,3,4,5-tetrahydrobenzo[f][1,4]oxazepine-8-carboxamide]
24 | ≤ 100 | COC1CCN(C(=O)N2Cc3ccc(C(=O)NO)cc3OC[C@@H]2C)CC1 [(S)-N-hydroxy-4-(4-methoxypiperidine-1-carbonyl)-3-methyl-2,3,4,5-tetrahydrobenzo[f][1,4]oxazepine-8-carboxamide]
25 | 100 to 500 | COCCS(=O)(=O)N1Cc2ccc(C(=O)NO)cc2OC[C@@H]1C [(S)-N-hydroxy-4-((2-methoxyethyl)sulfonyl)-3-methyl-2,3,4,5-tetrahydrobenzo[f][1,4]oxazepine-8-carboxamide]
26 | ≤ 100 | C[C@H]1COc2cc(C(=O)NO)ccc2CN1C(=O)N1Cc2ccccc2C1 [(S)-N-hydroxy-4-(isoindoline-2-carbonyl)-3-methyl-2,3,4,5-tetrahydrobenzo[f][1,4]oxazepine-8-carboxamide]
27 | ≤ 100 | CC(C)CN1Cc2ccc(C(=O)NO)cc2OC[C@@H]1C [(S)-N-hydroxy-4-isobutyl-3-methyl-2,3,4,5-tetrahydrobenzo[f][1,4]oxazepine-8-carboxamide]
28 | > 500 | CC(C)N1Cc2ccc(C(=O)NO)cc2OC[C@@H]1C [(S)-N-hydroxy-4-isopropyl-3-methyl-2,3,4,5-tetrahydrobenzo[f][1,4]oxazepine-8-carboxamide]
29 | > 500 | C[C@H]1CN(C)Cc2ccc(C(=O)NO)cc2O1 [(S)—N-hydroxy-2,4-dimethyl-2,3,4,5-tetrahydrobenzo[f][1,4]oxazepine-8-carboxamide]
30 | 100 to 500 | C[C@H]1CNCc2ccc(C(=O)NO)cc2O1 [(S)—N-hydroxy-2-methyl-2,3,4,5-tetrahydrobenzo[f][1,4]oxazepine-8-carboxamide]
31 | 100 to 500 | C[C@H]1COc2cc(C(=O)NO)ccc2CN1C [(S)—N-hydroxy-3,4-dimethyl-2,3,4,5-tetrahydrobenzo[f][1,4]oxazepine-8-carboxamide]
32 | 100 to 500 | C[C@H]1COc2cc(C(=O)NO)ccc2CN1 [(S)—N-hydroxy-3-methyl-2,3,4,5-tetrahydrobenzo[f][1,4]oxazepine-8-carboxamide]
33 | 100 to 500 | O=C(NO)c1ccc2c(c1)OCCNC2 [N-hydroxy-2,3,4,5-tetrahydrobenzo[f][1,4]oxazepine-8-carboxamide]
34 | 100 to 500 | O=C1CN(C(=O)N2CCCCC2)Cc2cc(C(=O)NO)ccc2N1 [N-hydroxy-2-oxo-4-(piperidine-1-carbonyl)-2,3,4,5-tetrahydro-1H-benzo[e][1,4]diazepine-7-carboxamide]
35 | > 500 | O=C1CN(c2ccccc2)Cc2cc(C(=O)NO)ccc2N1 [N-hydroxy-2-oxo-4-phenyl-2,3,4,5-tetrahydro-1H-benzo[e][1,4]diazepine-7-carboxamide]
36 | ≤ 100 | CN1Cc2ccc(C(=O)NO)cc2OCC1(C)C [N-hydroxy-3,3,4-trimethyl-2,3,4,5-tetrahydrobenzo[f][1,4]oxazepine-8-carboxamide]
